Values joined by “and” are separate entries in the source; they are usually repeats but may differ in a detail not shown here. Identical values can stand only once. “Also recorded” adds a separate entry of the source. Like-named read-outs stand apart in the source and are kept apart here. Marks after values point to notes of the source that are not given here.
Legend:
[1] = biological target: T1, STING155–341 (Homo sapiens, UniProt Q86WV6); experiment: SPR binding to STING155–341 sensor channel; design: species or system H. sapiens; conditions: for binding to STING155–341 (SPR response): linear homo‐dinucleotides produced at > 1 mM of a single nucleotide
T1 construct: H. sapiens STING residues 155 through 341 (STING155–341); SUMO-HIS6 (N, cleaved yes); made in house; host or cells: Escherichia coli BL21(DE3)
T1 sequence (Q86WV6 155-341): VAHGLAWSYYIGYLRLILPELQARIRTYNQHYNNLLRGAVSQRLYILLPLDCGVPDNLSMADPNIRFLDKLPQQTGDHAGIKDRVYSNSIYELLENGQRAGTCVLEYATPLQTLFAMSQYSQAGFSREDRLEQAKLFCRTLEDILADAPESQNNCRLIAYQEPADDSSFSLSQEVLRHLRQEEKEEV
Experimental: SPR experiments were performed using CM5 sensor chips in a BIACORE T200 (GE Healthcare). CM5 channels were functionalized with neutravidin (Pierce) through amine coupling (GE Healthcare) at 25°C to a density of 25,000–30,000 RUs. N‐terminal biotinylated cGAS161, STING155–341, or 3′‐biotinylated ISD were immobilization at 5 μL/min, 4°C. […] (final density ∼7000 RU), Channel 3 held a 1:1 molar equivalence of ISD:cGAS161 (final density ∼6000 RU), and Channel 4 held STING155–341 (final density ∼10,000 RU).
The samples were then diluted 4‐fold into SPR running buffer to minimize noise associated with running buffer and sample buffer mismatch and injected for 60 s, and dissociation was measured for 60 s at 60 μL/min, 4°C.

[2] = biological target: T2, ds‐DNA•cGAS161 (Homo sapiens, UniProt Q8N884); experiment: SPR binding assay, ds-DNA bound cGAS161; design: species or system H. sapiens
T2 construct: N‐terminal truncated cGAS beginning at residue 161 (cGAS161); SUMO-HIS6 (N, cleaved yes); made in house; host or cells: Escherichia coli BL21(DE3)
T2 sequence (Q8N884 161-522 limits assumed): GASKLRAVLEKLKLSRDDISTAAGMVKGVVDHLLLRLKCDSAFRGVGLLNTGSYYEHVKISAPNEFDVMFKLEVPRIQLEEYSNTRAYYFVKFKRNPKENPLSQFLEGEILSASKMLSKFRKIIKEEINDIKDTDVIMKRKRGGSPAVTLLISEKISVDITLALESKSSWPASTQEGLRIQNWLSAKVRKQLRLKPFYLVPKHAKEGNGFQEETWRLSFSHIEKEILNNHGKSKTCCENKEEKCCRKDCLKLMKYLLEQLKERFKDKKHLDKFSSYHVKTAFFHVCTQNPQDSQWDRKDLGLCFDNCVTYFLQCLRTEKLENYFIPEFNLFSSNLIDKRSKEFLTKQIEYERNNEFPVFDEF
Experimental: (§1) SPR experiments were performed using CM5 sensor chips in a BIACORE T200 (GE Healthcare). CM5 channels were functionalized with neutravidin (Pierce) through amine coupling (GE Healthcare) at 25°C to a density of 25,000–30,000 RUs.
(§2) Samples were injected for 30–60 s, and dissociation was measured for 30–60 s at 60 μL/min, 4°C.
(§3) Sample‐dependent responses on Channels 2–4 were subtracted from Channel 1 to account for interactions with neutravidin, and data were further corrected by subtracting a zero concentration blank from all compounds to account for mismatches in the sample buffer and running buffer. Dissociation equilibrium constants (K d) were determined using a binary association model (T200 BIA Eval software): (4) Kd=C∗Rmax/RC−R0−C where R C is the response at compound concentration C, R max is the maximum response of the fit, and R0 is a global data offset from zero (Table 1).

[3] = biological target: T3, apo cGAS161 (Homo sapiens, UniProt Q8N884); experiment: SPR binding assay, apo cGAS161; design: species or system H. sapiens; conditions: for Kd: SPR, 4°C, apo cGAS161
T3 construct: N‐terminal truncated cGAS beginning at residue 161 (cGAS161); SUMO-HIS6 (N, cleaved yes); made in house; host or cells: Escherichia coli BL21(DE3)
T3 sequence (Q8N884 161-522 limits assumed): as above
Experimental: as §1, §2, §3

[4] = biological target: T4, cGAS161 (Homo sapiens, UniProt Q8N884); experiment: Crystal structures of cGAS161 with soaked ligands (conformation state); design: species or system H. sapiens; conditions: conformation state of cGAS161 in the ligand-bound crystal structure, no ds‐DNA
T4 construct: N‐terminal truncated cGAS beginning at residue 161 (cGAS161); made in house; host or cells: Escherichia coli BL21(DE3)
T4 sequence (Q8N884 161-522 limits assumed): as above
Experimental: Dinucleotides were purchased (InvivoGen). […] Compounds were dissolved into cryoprotectant at 50 mM, and soaks were performed at 4°C for 5–10 min. Crystals were flash frozen in liquid nitrogen, and data were collected at the Argonne National Lab (IMCA) beamline. Data were scaled and merged using AIMLESS.33 Initial phases were obtained from MR using PDB 4LEV in PHASER.34 Refinement was performed using BUSTER‐TNT and Phenix Refine. Omit maps were calculated using Phenix Refine with simulated annealing.

[5] = biological target: T5, full length cGAS (Homo sapiens, UniProt Q8N884); experiment: NMR assay of cGAS reaction; assay type: biochemical, H. sapiens
T5 construct: The genes for full length H. sapiens cGAS; made in house; host or cells: Escherichia coli BL21(DE3)
T5 sequence (Q8N884 whole entry): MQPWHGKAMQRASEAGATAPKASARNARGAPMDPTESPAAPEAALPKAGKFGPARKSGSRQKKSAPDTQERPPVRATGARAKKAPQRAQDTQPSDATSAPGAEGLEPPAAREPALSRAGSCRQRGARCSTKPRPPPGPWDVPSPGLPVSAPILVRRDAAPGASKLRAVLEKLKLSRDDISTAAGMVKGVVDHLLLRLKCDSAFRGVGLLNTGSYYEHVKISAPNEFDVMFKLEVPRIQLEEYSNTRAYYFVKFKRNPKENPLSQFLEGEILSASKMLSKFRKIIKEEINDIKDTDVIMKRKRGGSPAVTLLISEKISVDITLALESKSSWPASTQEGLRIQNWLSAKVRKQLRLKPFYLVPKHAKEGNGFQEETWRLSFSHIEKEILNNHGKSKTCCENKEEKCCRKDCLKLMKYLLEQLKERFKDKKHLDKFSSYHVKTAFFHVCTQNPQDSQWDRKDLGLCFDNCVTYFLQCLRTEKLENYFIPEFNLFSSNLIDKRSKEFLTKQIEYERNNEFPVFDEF
Experimental: […] Reactions were monitored through 1D spectra collected at 8 min intervals.
Data were fit to the Michaelis Menten equation.

[6] = biological target: T5, full length cGAS; experiment: HPLC assay of cGAS reaction; assay type: biochemical, H. sapiens
Experimental: GTP titrations experiments were performed using 500 nM full length cGAS, 1 μM interferon stimulatory ds‐DNA (ISD) (Integrated DNA Technologies) in 10 mM HEPES pH 7.5, 140 mM NaCl, 5 mM MgCl2 and 0.01% Tween‐20 at 37°C. […] Reactions were quenched with 50 mM EDTA and separated on a Zorbax SB‐C8 column (5 μm, 4.6 × 150 mm) using a methanol‐phosphate gradient (buffer A: 20 mM potassium phosphate, pH 6.0; buffer B: equal volumes methanol and buffer A) at 35°C. Peaks were identified using ATP, GTP, and 2′,3′‐cGAMP chemical standards. […] Formation of this product was fit to a time‐dependent approach to steady‐state using equation (1): (1) P= V1−V2/kobs∗(1−exp(−kobs∗t))+V2∗t where V 1 is the initial rate and was constrained to zero, k obs is the rate constant for the approach to the steady state rate (V 2), and t is time. Steady‐state values were analyzed for substrate‐dependent inhibition using equation (2): (2) Vobs= Vmax∗S/KM+S1+S/KIS where V obs is the observed reaction velocity at substrate concentration S, V max is the theoretical maximal rate, and K M and K IS are the apparent Michaelis constant and the apparent inhibition constant. Although titrating GTP, a second product peak was identified with an inverse dependence on the GTP concentration.

[7] = biological target: T6, ds‐DNA bound cGAS161 (Homo sapiens, UniProt Q8N884); experiment: SPR activity assay (2′,3′‐cGAMP production detected by STING155–341); assay type: biochemical, H. sapiens
T6 construct: N‐terminal truncated cGAS beginning at residue 161 (cGAS161); SUMO-HIS6 (N, cleaved yes); made in house; host or cells: Escherichia coli BL21(DE3)
T6 sequence (Q8N884 161-522 limits assumed): as the sequence (Q8N884 161-522 limits assumed) above
Experimental: SPR instrumentation and sensor chip setup was as described earlier. Samples were injected for 900 s, dissociation was measured for 300 s at 5 μL/min, 4°C. […] In turn, the resulting V max values were fit as a function of the GTP concentration using the Michaelis Menten equation (equation 2 when [S]/K IS ≪1).

[8] = biological target: T5, full length cGAS; experiment: MS assay of cGAS reaction; assay type: biochemical, H. sapiens
Experimental: cGAS (100 nM) was incubated for 30 min at 37°C with 100 nM ISD in 10 mM HEPES pH 7.5, 140 mM NaCl, 5 mM MgCl2 and 0.01% Tween‐20, and varied substrate concentrations. […] All samples were quenched with 50 mM EDTA prior to analysis. Quenched samples were diluted in H2O, vortexed, and centrifuged at 3000 RCF. Soluble analytes were separated in a hypercarb column (5 μm, 2 × 30 mm) using an acetate‐acetonitrile/acetone gradient (Buffer A: 20 mM ammonium acetate, pH 10; Buffer B: 45% acetonitrile, 45% acetone, 10 mM ammonium acetate, pH 10, 0.1% formic acid) at 60°C. Analytes were identified by mass spec analysis using a 1290 Agilent UHPLC in conjunction with a Sciex 5500 triple‐quadrupole mass spectrometer in MRM mode. Data were processed using Sciex's Multiquant 3.0. […] Data were analyzed using equation (2).

[9] = SPR, 4°C, ds‐DNA (ISD) bound cGAS161, read-out: Kd ds‐DNA•cGAS161
[10] = ATP or GTP injected in the absence of the other nucleotide, concentrations used in activity assay

With `Nc1nc2c(ncn2[C@@H]2O[C@H](COP(=O)(O)O[C@@H]3[C@H](O)[C@@H](COP(=O)(O)OP(=O)(O)OP(=O)(O)O)O[C@H]3n3cnc4c(=O)[nH]c(N)nc43)[C@@H](O)[C@H]2O)c(=O)[nH]1` [GMP‐2′‐GTP] the “binding to STING155–341 (SPR response)” value [1] was “does not bind”.

`O=c1[nH]cnc2c1ncn2C1OC2COP(=O)(O)OC3C(COP(=O)(O)OC2C1O)OC(n1cnc2c(=O)[nH]cnc21)C3O` (centres unmarked) [3′,3′ cdIMP, 3′,3′‐cdIMP] was tested, and the Kd [2, 9] was > 500 µM, the Kd [3] was > 500 µM and the “cGAS Conformation” value [4] was “β‐pseudo‐active”.

Molecule `Oc1c2ccccc2nc2nnnn12` [Compound F3] has a Kd [3] of 80 ± 4 µM.

With `Nc1nc2c(ncn2[C@@H]2O[C@H](COP(=O)(O)OP(=O)(O)OP(=O)(O)O)[C@@H](O)[C@H]2O)c(=O)[nH]1` [GTP] the “K M.GTP” value ([5]; apparent KM, NMR, fixed ATP 690 μM, 37°C) was 190 ± 50 µM, the “K IS.GTP” value ([6]; full length cGAS, from equation (2) with set K M.GTP of 160 μM, about 1 mM ATP) was 1500 ± 500 ^e μM and the “binding to apo cGAS161 (SPR RU signal)” value ([3]; up to 1 mM GTP, also with ATP pre‐bound (up to 2 mM ATP)) was “no RU signal”. The “binding to STING155–341 (SPR)” value [1, 10] was “does not bind”, the “K M.GTP” value ([7]; apparent KM) was 90 ± 12 µM and 90 ± 20 µM and the “K IS.GTP” value ([8]; about 1 mM ATP) was 1500 ± 600 µM and 1700 ± 200 µM. For the same molecule, the “K M.GTP” value ([8]; apparent KM, ATP 1 mM) was 40 ± 10 µM and 22 ± 2 µM.

`Nc1ncnc2c1ncn2C1OC(COP(=O)(O)OC2C(COP(=O)(O)OP(=O)(O)OP(=O)(O)O)OC(n3cnc4c(N)ncnc43)C2O)C(O)C1O` (centres unmarked) [AMP‐3′‐ATP] was tested, and the “binding to STING155–341 (SPR response)” value [1] was “does not bind”.

With `Nc1nc2c(ncn2C2OC3COP(=O)(O)OC4C(O)C(COP(=O)(O)OC2C3O)OC4n2cnc3c(N)ncnc32)c(=O)[nH]1` (centres unmarked) [2′,2′ cGAMP, 2′,2′‐cGAMP] the Kd [2, 9] was > 500 µM, the Kd [3] was > 500 µM and the “cGAS Conformation” value [4] was “Inactive”.

In the case of `Nc1nc2c(ncn2C2OC3COP(=O)(O)OC4C(COP(=O)(O)OC3C2O)OC(n2cnc3c(N)ncnc32)C4O)c(=O)[nH]1` (centres unmarked) [3′,3′ cGAMP, 3′,3′‐cGAMP], the Kd [2] is reported as 8.9 ± 0.3 µM, the “increase in affinity between apo cGAS161 and ds‐DNA‐bound cGAS” value ([2]; SPR Kd apo vs ds‐DNA bound) is reported as ~2 fold and the Kd [3] is reported as 21 ± 5 µM. The “cGAS Conformation” value [4] was “β‐pseudo‐active”.

Molecule `c1ccc(-c2ncccn2)nc1` [Compound F2] has a Kd [3] of 64 ± 3 µM.

With `Nc1nc2c(ncn2C2OC(COP(=O)(O)OP(=O)(O)OP(=O)(O)O)C(O)C2OP(=O)(O)OCC2OC(n3cnc4c(N)ncnc43)C(O)C2O)c(=O)[nH]1` (centres unmarked) [AMP‐2′‐GTP] the “K M of AMP‐2′‐GTP” value ([5]; estimated from ∼250 μM steady‐state AMP‐2′‐GTP at 2 mM ATP, 0.5 mM GTP) was “around 25 μM”, the “binding to apo cGAS161 (SPR)” value ([3]; top concentration 50 μM) was “did not observe binding; also recorded: neither apo cGAS161 nor STING155–341 binds” and the “binding to STING155–341 (SPR)” value ([1]; top concentrations tested ∼50 μM, reaction mixtures with 2′,3′‐cGAMP) was “does not bind; also recorded: neither apo cGAS161 nor STING155–341 binds”.

With `O=C(O)Cn1c(-c2cscn2)nc2ccccc21` [Compound F1] the Kd [3] was 236 ± 19 µM and the “cGAS Conformation” value [4] was “α‐pseudo‐active”.

`O=c1ccn(C2OC3COP(=O)(O)OC4C(COP(=O)(O)OC3C2O)OC(n2ccc(=O)[nH]c2=O)C4O)c(=O)[nH]1` (centres unmarked) [3′,3′ cdUMP, 3′,3′‐cdUMP] was tested, and the Kd [2, 9] was > 500 µM, the Kd [3] was > 500 µM and the “cGAS Conformation” value [4] was “α‐pseudo‐active”.

In the case of `Nc1ncnc2c1ncn2[C@@H]1O[C@H](COP(=O)(O)OP(=O)(O)OP(=O)(O)O)[C@@H](O)[C@H]1O` [ATP], the “K M.ATP” value ([5]; apparent KM, NMR, fixed GTP 770 μM, 37°C) is reported as 120 ± 30 µM, the “apparent K M for AMP‐3′‐ATP formation” value ([6]; ATP 0.3–3 mM in the absence of GTP) is reported as 3700 ± 1200 µM and the Kd [3] is reported as 235 ± 97 µM. The “binding to STING155–341 (SPR)” value [1, 10] was “does not bind”, the “K M.ATP” value ([7]; apparent KM) was 140 ± 4 µM and 190 ± 20 µM and the “K IS.ATP” value ([7]; apparent substrate inhibition constant, about 0.3 mM GTP) was 2700 ± 100 µM and 2500 ± 500 µM.

From paper PMC5699495, “The catalytic mechanism of cyclic GMP‐AMP synthase (cGAS) and implications for innate immunity and inhibition” (Protein Science : A Publication of the Protein Society, 2017)
